Reference: ChEMBL document CHEMBL1152944, “Design, synthesis and biological evaluation of novel triazole, urea and thiourea derivatives of quinoline against Mycobacterium tuberculosis” (Bioorg Med Chem, 2009)
In brackets after ≈: the same amount, converted by molar mass.

How the values were obtained:
[1] = tested on: Mycobacterium tuberculosis; assay: Antimycobacterial activity against Mycobacterium tuberculosis H37Rv ATCC 27294 at 6.25 ug/mL by BACTEC 460 radiometric assay; type: functional
[2] = Cytotoxicity against mouse macrophage cells assessed as cell viability at 1 ug/100 ul after 24 hrs by MTT assay; type: cell-based; conditions: read-out: Activity
[3] = Cytotoxicity against mouse macrophage cells assessed as cell viability at 10 ug/100 ul after 72 hrs by MTT assay; type: cell-based; conditions: read-out: Activity
[4] = tested on: Mycobacterium tuberculosis; assay: Antimycobacterial activity against Mycobacterium tuberculosis H37Rv ATCC 27294; type: functional
[5] = Cytotoxicity against mouse macrophage cells assessed as cell viability at 10 ug/100 ul after 24 hrs by MTT assay; type: cell-based; conditions: read-out: Activity
[6] = Cytotoxicity against mouse macrophage cells assessed as cell viability at 1 ug/100 ul after 72 hrs by MTT assay; type: cell-based; conditions: read-out: Activity

Compound	inhibition at 6.25 µg/mL [1]	further results
COc1ccc(NC(=S)Nc2ccc3nc(Oc4ccc(F)cc4C(C)O)c(Cc4ccccc4)cc3c2)cc1 (stereo not given)	27%	–
O=[N+]([O-])c1ccc2nc(Oc3ccc(F)cc3C(O)Cn3ccc(-c4ccc(C(F)(F)F)cc4)n3)c(Cc3ccccc3)cc2c1 (stereo not given)	6%	–
COc1cccc(NC(=S)Nc2ccc3nc(Oc4ccc(F)cc4C(C)O)c(Cc4ccccc4)cc3c2)c1 (stereo not given)	22%	–
CC(c1cc(F)ccc1Oc1nc2ccc(-n3cc(-c4ccccc4)nn3)cc2cc1Cc1ccccc1)N1CCCCC1 (stereo not given)	81%	–
CC(O)c1cc(F)ccc1Oc1nc2ccc(NC(=O)Nc3cccc([N+](=O)[O-])c3)cc2cc1Cc1ccccc1 (stereo not given)	98%	viability at 24 h, 1 ug/100 ul [2]: 91%; viability at 72 h, 10 ug/100 ul [3]: 53%; MIC [4]: 6.25 µg/mL (≈ 11.3 µM); viability at 24 h, 10 ug/100 ul [5]: 87%; viability at 72 h, 1 ug/100 ul [6]: 55%
O=[N+]([O-])c1ccc2nc(Oc3ccc(F)cc3C(O)Cn3ccc(-c4cccc(Cl)c4)n3)c(Cc3ccccc3)cc2c1 (stereo not given)	0%	–
O=[N+]([O-])c1ccc2nc(Oc3ccc(F)cc3C(O)CN3CCOCC3)c(Cc3ccccc3)cc2c1 (stereo not given)	29%	–
CC(c1cc(F)ccc1Oc1nc2ccc(-n3cc(-c4ccccc4)nn3)cc2cc1Cc1ccccc1)N1CCN(c2ccc(F)cc2)CC1 (stereo not given)	20%	–
COc1ccc(-c2ccn(CC(O)c3cc(F)ccc3Oc3nc4ccc([N+](=O)[O-])cc4cc3Cc3ccccc3)n2)cc1 (stereo not given)	5%	–
CC(c1cc(F)ccc1Oc1nc2ccc(-n3cc(-c4ccccc4)nn3)cc2cc1Cc1ccccc1)n1ccnc1 (stereo not given)	96%	viability at 24 h, 1 ug/100 ul [2]: 100%; viability at 72 h, 10 ug/100 ul [3]: 58%; MIC [4]: 3.12 µg/mL (≈ 5.51 µM); viability at 24 h, 10 ug/100 ul [5]: 88%; viability at 72 h, 1 ug/100 ul [6]: 61%
O=[N+]([O-])c1ccc2nc(Oc3ccc(F)cc3C(O)Cn3ccnc3)c(Cc3ccccc3)cc2c1 (stereo not given)	58%	–
O=[N+]([O-])c1ccc2nc(Oc3ccc(F)cc3C(O)Cn3cccn3)c(Cc3ccccc3)cc2c1 (stereo not given)	53%	–
COc1ccc(NC(=O)Nc2ccc3nc(Oc4ccc(F)cc4C(C)O)c(Cc4ccccc4)cc3c2)cc1 (stereo not given)	25%	–
COc1cccc(NC(=O)Nc2ccc3nc(Oc4ccc(F)cc4C(C)O)c(Cc4ccccc4)cc3c2)c1 (stereo not given)	94%	viability at 24 h, 1 ug/100 ul [2]: 100%; viability at 72 h, 10 ug/100 ul [3]: 63%; MIC [4]: 3.12 µg/mL (≈ 5.81 µM); viability at 24 h, 10 ug/100 ul [5]: 79%; viability at 72 h, 1 ug/100 ul [6]: 100%
CC(O)c1cc(F)ccc1Oc1nc2ccc(NC(=S)NCc3ccc(Cl)cc3)cc2cc1Cc1ccccc1 (stereo not given)	37%	–
COc1ccccc1NC(=O)Nc1ccc2nc(Oc3ccc(F)cc3C(C)O)c(Cc3ccccc3)cc2c1 (stereo not given)	8%	–
CC(c1cc(F)ccc1Oc1nc2ccc(-n3cc(-c4ccccc4)nn3)cc2cc1Cc1ccccc1)N1CCN(c2ccccn2)CC1 (stereo not given)	29%	–
O=[N+]([O-])c1ccc2nc(Oc3ccc(F)cc3C(O)CN3CCNCC3)c(Cc3ccccc3)cc2c1 (stereo not given)	20%	–
COc1ccccc1NC(=S)Nc1ccc2nc(Oc3ccc(F)cc3C(C)O)c(Cc3ccccc3)cc2c1 (stereo not given)	14%	–
COc1cccc(-c2ccn(CC(O)c3cc(F)ccc3Oc3nc4ccc([N+](=O)[O-])cc4cc3Cc3ccccc3)n2)c1 (stereo not given)	7%	–
